Source: ChEMBL document CHEMBL1201862, “PubChem BioAssay data set” (2004)
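1) Cells in 96-well plates. 2) Compound, 48 h, 5 concentrations. 3) Linear interpolation between surrounding doses. 4) Unreached endpoint = highest concentration. At the GI50, growth is halved.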 Active and inactive are the calls of the source. Rule as the data show it: active = GI50 up to about 1.1 µM and inactive = higher.

What was measured:
Assay in all cases: DTP human tumour cell line panel, 48 h
A498 = test system: A498
A549 = test system: A549
CAKI-1 = test system: CAKI-1
COLO 205 = test system: COLO 205
HCC 2998 = test system: HCC 2998
HCT-15 = test system: HCT-15
IGROV-1 = test system: IGROV-1
LOX IMVI = test system: LOX IMVI
Malme-3M = test system: Malme-3M
NCI-H23 = test system: NCI-H23
NCI-H460 = test system: NCI-H460
OVCAR-4 = test system: OVCAR-4
OVCAR-5 = test system: OVCAR-5
PC-3 = test system: PC-3
RPMI-8226 = test system: RPMI-8226
SF-268 = test system: SF-268
SF-295 = test system: SF-295
SR = test system: SR
UACC-62 = test system: UACC-62

| SMILES | GI50 (A498) | GI50 (A549) | GI50 (CAKI-1) | GI50 (COLO 205) | GI50 (HCC 2998) | GI50 (HCT-15) | GI50 (IGROV-1) | GI50 (LOX IMVI) | GI50 (Malme-3M) | GI50 (NCI-H23) | GI50 (NCI-H460) | GI50 (OVCAR-4) | GI50 (OVCAR-5) | GI50 (PC-3) | GI50 (RPMI-8226) | GI50 (SF-268) | GI50 (SF-295) | GI50 (SR) | GI50 (UACC-62) |
| --- | --- | --- | --- | --- | --- | --- | --- | --- | --- | --- | --- | --- | --- | --- | --- | --- | --- | --- | --- |
| CC(=O)C(C)CCOC1(C)OCCC1C (stereo not given) | > 100 µM (inactive) | > 100 µM (inactive) | > 100 µM (inactive) | 65 µM (inactive) | > 100 µM (inactive) | > 100 µM | > 100 µM (inactive) | > 100 µM (inactive) | > 100 µM (inactive) | > 100 µM (inactive) | > 100 µM (inactive) | > 100 µM (inactive) | > 100 µM (inactive) | > 100 µM (inactive) | > 100 µM (inactive) | > 100 µM (inactive) | > 100 µM (inactive) | > 100 µM (inactive) | > 100 µM (inactive) |
| COCCOC1=CC(=O)c2c(O)ccc(O)c2C1=O | 1.79 µM (inactive) | 2 µM (inactive) | 2.59 µM (inactive) | 0.284 µM (active) | 2.17 µM (inactive) | 1.02 µM | 1.72 µM (inactive) | 0.726 µM (active) | 0.167 µM (active) | 1.12 µM (active) | 1.58 µM (inactive) | 1.89 µM (inactive) | 1.61 µM (inactive) | 2.34 µM (inactive) | 4.28 µM (inactive) | 1.89 µM (inactive) | 1.69 µM (inactive) | 5.01 µM (inactive) | 1.85 µM (inactive) |
| Cc1cccc(-c2cc(O)c3c(C)cc(C)nc3n2)c1 | 5.71 µM (inactive) | 3.66 µM (inactive) | 5.66 µM (inactive) | 1.04 µM (active) | 4.9 µM (inactive) | 1.32 µM | 4.06 µM (inactive) | 4.82 µM (inactive) | 2.31 µM (inactive) | 3.65 µM (inactive) | 2.95 µM (inactive) | 4.38 µM (inactive) | 5.15 µM (inactive) | 2.43 µM (inactive) | 4.07 µM (inactive) | 6.21 µM (inactive) | 2.72 µM (inactive) | 0.38 µM (active) | 4.14 µM (inactive) |
| Cn1c2ccccc2c2[nH]c3ccccc3c(=O)c21 | > 100 µM (inactive) | > 100 µM (inactive) | > 100 µM (inactive) | > 100 µM (inactive) | > 100 µM (inactive) | > 100 µM | > 100 µM (inactive) | 31.8 µM (inactive) | > 100 µM (inactive) | > 100 µM (inactive) | > 100 µM (inactive) | > 10 µM (inactive) | > 100 µM (inactive) | > 100 µM (inactive) | > 100 µM (inactive) | > 100 µM (inactive) | > 100 µM (inactive) | > 100 µM (inactive) | > 100 µM (inactive) |
| C/C(=C\[C@H]1C[C@@H]([C@@H]2CC[C@]34C[C@]23C=C[C@@H]2[C@@]3(C)CC=C5C[C@@H](c6ccccc6)OC[C@]5(C)[C@@H]3C[C@@H](O)[C@]24C)C(=O)O1)CO [DICHAPETALIN A] | 0.437 µM (active) | 2.79 µM (inactive) | 2.08 µM (inactive) | 2.01 µM (inactive) | 6 µM (inactive) | 4.38 µM | 2.92 µM (inactive) | 1.52 µM (inactive) | 3.56 µM (inactive) | 1.19 µM (inactive) | 0.721 µM (active) | 3.03 µM (inactive) | 9.82 µM (inactive) | 2.64 µM (inactive) | 0.624 µM (active) | 6.75 µM (inactive) | 1.34 µM (inactive) | < 0.01 µM (active) | 9.02 µM (inactive) |
| O=c1[nH]nc(-c2ccccc2)n1/N=C/c1ccc([N+](=O)[O-])cc1 | 14.6 µM (inactive) | 23.9 µM (inactive) | 12.3 µM (inactive) | > 100 µM (inactive) | > 45.4 µM (inactive) | > 100 µM | > 58.7 µM (inactive) | 31.1 µM (inactive) | > 100 µM (inactive) | > 53.2 µM (inactive) | 22.9 µM (inactive) | 3.85 µM (inactive) | > 100 µM (inactive) | > 100 µM (inactive) | > 100 µM (inactive) | 13 µM (inactive) | 27.2 µM (inactive) | > 100 µM (inactive) | > 53.8 µM (inactive) |
| c1cc2nnc1SCCSCCSc1ccc(nn1)SCCSCCS2 | > 100 µM (inactive) | > 100 µM (inactive) | > 100 µM (inactive) | > 100 µM (inactive) | > 100 µM (inactive) | > 100 µM | > 100 µM (inactive) | > 100 µM (inactive) | > 100 µM (inactive) | > 100 µM (inactive) | > 100 µM (inactive) | > 100 µM (inactive) | > 100 µM (inactive) | > 100 µM (inactive) | > 100 µM (inactive) | > 100 µM (inactive) | > 100 µM (inactive) | > 100 µM (inactive) | > 100 µM (inactive) |
| O=P1(c2ccccc2)C(c2ccccc2)=CC=C1c1ccccc1 | 16.8 µM (inactive) | 22.6 µM (inactive) | 50.7 µM (inactive) | 15 µM (inactive) | 25.2 µM (inactive) | 16 µM | 39.8 µM (inactive) | 10.4 µM (inactive) | 27.3 µM (inactive) | 21.5 µM (inactive) | 11.6 µM (inactive) | 10.6 µM (inactive) | 20.9 µM (inactive) | 15.3 µM (inactive) | 3.31 µM (inactive) | 24.5 µM (inactive) | 28.4 µM (inactive) | 11.9 µM (inactive) | 18.8 µM (inactive) |
| COC(=O)c1sc2ncc3c(c2c1N)CC(C)CC3 (stereo not given) | > 100 µM (inactive) | > 100 µM (inactive) | > 100 µM (inactive) | > 100 µM (inactive) | > 100 µM (inactive) | > 100 µM | > 100 µM (inactive) | 71.3 µM (inactive) | > 100 µM (inactive) | > 100 µM (inactive) | > 100 µM (inactive) | > 100 µM (inactive) | > 100 µM (inactive) | > 100 µM (inactive) | > 100 µM (inactive) | > 100 µM (inactive) | > 100 µM (inactive) | > 100 µM (inactive) | > 100 µM (inactive) |
| CC(C)NC(=O)OCc1c(COC(=O)NC(C)C)c(-c2cc[n+](COC(=O)C(C)C)cc2)n2c1CCC2 | 13.9 µM (inactive) | > 100 µM (inactive) | 20 µM (inactive) | > 100 µM (inactive) | > 100 µM (inactive) | > 100 µM | 30.1 µM (inactive) | > 50.7 µM (inactive) | > 100 µM (inactive) | > 90.4 µM (inactive) | 41.6 µM (inactive) | > 100 µM (inactive) | > 100 µM (inactive) | > 59.6 µM (inactive) | > 100 µM (inactive) | > 74.8 µM (inactive) | > 83.2 µM (inactive) | > 25.2 µM (inactive) | 48.9 µM (inactive) |
| COC(=O)NN(C(=O)OC)c1c(-c2ccccc2)nc(SC)n1N | > 100 µM (inactive) | > 100 µM (inactive) | > 100 µM (inactive) | > 100 µM (inactive) | > 100 µM (inactive) | > 100 µM | > 100 µM (inactive) | > 100 µM (inactive) | > 100 µM (inactive) | > 100 µM (inactive) | > 100 µM (inactive) | > 100 µM (inactive) | > 100 µM (inactive) | > 100 µM (inactive) | > 100 µM (inactive) | > 100 µM (inactive) | > 100 µM (inactive) | > 100 µM (inactive) | > 100 µM (inactive) |
| O=C1CCc2cc(Br)ccc2O1 | 37.8 µM (inactive) | > 100 µM (inactive) | 38.4 µM (inactive) | > 100 µM (inactive) | > 100 µM (inactive) | > 100 µM | 67.3 µM (inactive) | 50.5 µM (inactive) | > 100 µM (inactive) | 44.7 µM (inactive) | > 100 µM (inactive) | > 100 µM (inactive) | > 100 µM (inactive) | > 100 µM (inactive) | > 100 µM (inactive) | 23.6 µM (inactive) | 34 µM (inactive) | 83 µM (inactive) | > 100 µM (inactive) |
| CC(=O)CC1(O)C(=O)c2c(Br)sc(Br)c2C1=O | > 100 µM (inactive) | 58.1 µM (inactive) | 17.3 µM (inactive) | 18.7 µM (inactive) | 17.8 µM (inactive) | 20.4 µM | 17 µM (inactive) | 17.7 µM (inactive) | 18.1 µM (inactive) | 19.5 µM (inactive) | 45.1 µM (inactive) | 18.6 µM (inactive) | 17.6 µM (inactive) | 20.6 µM (inactive) | 31.3 µM (inactive) | 30.2 µM (inactive) | > 100 µM (inactive) | 21.1 µM (inactive) | 21 µM (inactive) |
| NC(=S)NN=Cc1ccccc1OCc1cccc(COc2ccccc2C=NNC(N)=S)n1 | 17.5 µM (inactive) | > 100 µM (inactive) | > 100 µM (inactive) | > 87.7 µM (inactive) | > 100 µM (inactive) | > 61.2 µM | 13.7 µM (inactive) | > 100 µM (inactive) | > 54.3 µM (inactive) | 29.8 µM (inactive) | > 58.6 µM (inactive) | > 100 µM (inactive) | 29.9 µM (inactive) | > 57.7 µM (inactive) | > 100 µM (inactive) | 5.46 µM (inactive) | 6.85 µM (inactive) | > 100 µM (inactive) | 19.3 µM (inactive) |
| C=CCOc1ccc2c(C)cc(=O)oc2c1C | 31.5 µM (inactive) | 50.7 µM (inactive) | 24.1 µM (inactive) | 44.3 µM (inactive) | 33 µM (inactive) | 42.8 µM | 63 µM (inactive) | 43.8 µM (inactive) | > 100 µM (inactive) | > 100 µM (inactive) | 53.8 µM (inactive) | 96.4 µM (inactive) | > 100 µM (inactive) | 35.3 µM (inactive) | 35.5 µM (inactive) | 55.3 µM (inactive) | 23.3 µM (inactive) | 37.8 µM (inactive) | 82.6 µM (inactive) |
